Measurements taken from US20220040280A1, “INHIBITORS AND USES THEREOF” (UNIVERSITY OF CANBERRA, priority 2016, published 2022).
Entries after “also recorded” stand apart in the source; their conditions may differ. Residues, ends and D or L forms follow the SMILES beside them. *: point of attachment. Myristoyl = CCCCCCCCCCCCCC(=O)*

Tests used:
LSD1s111p = molecular target: T1, LSD1s111p (Homo sapiens, UniProt O60341); assay: Confocal microscopy of LSD1s111p in patient circulating tumor cells; assay type: cell-based; conditions: CTCs from two metastatic breast cancer patient liquid biopsies, FIG. 16
T1 construct: endogenous in cells; host or cells: circulating tumor cells from metastatic breast cancer patient blood
Source text: (§1) Cells were probed with either rabbit antibodies to LSD1s111p (Merck ABE1462), EGFR (AB2430), MET (ab51067), PD-L1 (sc-50298), goat antibodies to PD-L1 (sc-19091), SC-14033), (sc-19096), mouse antibodies to Cytokeratin (Miltenyi 130-090-866), CSV (Abnova H00007431-M08), vimentin (SC-6260) followed by visualisation with secondary anti mouse Alexa-Fluor 568 (A10037), secondary anti rabbit Alexa-Fluor 488 (A21206) or secondary anti goat Alexa-Fluor 633 (A21082).

LSD1 [1] = molecular target: T2, LSD1 (Homo sapiens, UniProt O60341); assay: Nuclear LSD1 in MCF7 cells treated with LSD1 inhibitors, confocal microscopy; assay type: cell-based; conditions: MCF7 cells stimulated with PMA for 60 hours, FIGS. 28 and 29
T2 construct: endogenous in cells; host or cells: MCF7 (non-stimulated or PMA-stimulated) and MDA-MB-231 breast cancer cells
Method: (§2) Confocal laser scanning microscopy was performed on either MDA-MB-231 cells treated with vehicle alone or MCF7 cells treated with vehicle alone or PMA for 60 h, and subsequently treated with a test inhibitor or vehicle alone. Test inhibitors include LSD1 siRNA or LSD1 catalytic inhibitors NCD36 (2-[N-(4-phenylbenzenecarbonyl)]amino-6-(trans-2-phenylcyclopropan-1-amino)-N-(3-methylbenzyl)hexanamide hydrochloride) or pargyline (Parg). Cells were fixed with 3.7% formaldehyde and permeabilized with 2% Triton-X-100, and then probed with a primary mouse antibody to LSD1 and a primary goat antibody to SNAIL, respectively, followed by the corresponding secondary antibodies conjugated to Alexa-Fluor 488 and […], respectively. TNFI values for MDA-MB-231, non-stimulated MCF7 and stimulated MCF7 cells were calculated. Data shown represent the mean±SE for at least 20 individual cells.

SNAIL [2] = assay: Nuclear SNAIL in MCF7 cells treated with LSD1 inhibitors, confocal microscopy; assay type: cell-based, human; conditions: MCF7 cells stimulated with PMA for 60 hours, FIGS. 28 and 29
Method: as §2

LSD1 [3] = molecular target: T2, LSD1; assay: Nuclear LSD1 in MDA-MB-231 cells treated with LSD1 inhibitors, confocal microscopy; assay type: cell-based; conditions: FIG. 30
Method: as §2

SNAIL [4] = assay: Nuclear SNAIL in MDA-MB-231 cells treated with LSD1 inhibitors, confocal microscopy; assay type: cell-based, human; conditions: FIG. 30
Method: as §2

PD-L2 = conditions: CTCs from two metastatic breast cancer patient liquid biopsies, FIG. 16
Method: (§5) Cells were permeabilised by incubating with 2% Triton X-100 for 20 min. Cells were probed with either rabbit antibodies to LSD1s111p (Merck ABE1462), EGFR (AB2430), MET (ab51067), PD-L1 (sc-50298), goat antibodies to PD-L1 (sc-19091), SC-14033), (sc-19096), mouse antibodies to Cytokeratin (Miltenyi 130-090-866), CSV (Abnova H00007431-M08), vimentin (SC-6260) followed by visualisation with secondary anti mouse Alexa-Fluor 568 (A10037), secondary anti rabbit Alexa-Fluor 488 (A21206) or secondary anti goat Alexa-Fluor 633 (A21082). Cover slips were mounted on glass microscope slides with ProLong Diamond Antifade© reagent (Life Technologies). Antibody staining was localised by confocal laser scanning microscopy. Single 0.5 μm sections were obtained using a Nikon x 60 oil immersion lens on the Nikon C1 plus confocal system running NIS-Elements AR 3.2 software. […] Digital confocal images were analysed using ImageJ software (ImageJ, NIH, Bethesda, Md., USA) to determine the nuclear/cytoplasmic fluorescence ratio (Fn/c) using the equation: Fn/c=(Fn−Fb)/(Fc−Fb), where Fn is nuclear fluorescence, Fc is cytoplasmic fluorescence, and Fb is background fluorescence or the Total Nuclear Fluorescence (TNFI), the Total Cytoplasmic Fluorescence (TCFI) or Total cell fluorescence. […] Florescence intensity was also measured in a minimum of n=10 cells for each sample set. […]

cytokeratin = conditions: CTCs from two metastatic breast cancer patient liquid biopsies, FIG. 16
Method: as §5

PD-L1 [5] = conditions: CTCs from metastatic breast cancer patients, in all but one patient, FIG. 17
Method: as §5

SNAIL [6] = conditions: CTCs from metastatic breast cancer patients, in all but one patient, FIG. 17
Method: as §5

[7] = system: LSD1 phosphorylated at serine 111 (LSD1s111p); assay: LSD1s111p in MCF7 cells treated with PKC inhibitors, confocal microscopy; assay type: cell-based, human; conditions: FIG. 26
Method: (§3) Confocal laser scanning microscopy was performed on either MDA-MB-231 cells treated with vehicle alone or MCF7 cells treated with vehicle alone or PMA for 60 hours. To assess the effect of the PKC inhibitors, C27 (Compound 27; (R)-2-((S)-4-(3-chloro-5-fluoro-6-(1H-pyrazolo[3,4-b]pyridine-3-yl)pyridine-2-yl)piperazin-2-yl)-3-methylbutan-2-ol; see Jimenez et al. (2013) J. Med. Chem., 56(5): 1799-1810) or bisindolylmaleimide (BIM), cells were then treated with C27, BIM or vehicle. Cells were fixed with 3.7% formaldehyde and permeabilized with 2% Triton-X-100, and were then probed with primary rabbit antibody to PKC-θ and a primary mouse antibody to LSD1 or LSD1 phosphorylated at serine 111 (LSD1s111p), respectively, followed by the corresponding secondary antibody conjugated to Alexa-Fluor 488 or Alexa-Fluor 568. Total nuclear fluorescence (TNFI) values for non-stimulated and stimulated MCF7 and MDA-MB-231 cells were calculated. […] The plot-profile feature of ImageJ was used to plot the fluorescence signal intensity along a single line spanning the nucleus (n=5 lines per nucleus, 5 individual cells). The average fluorescence signal intensity for the indicated pair of antibodies was plotted for each point on the line with SE. […] The PCC was determined for each plot profile, which indicates the strength of relation between the two fluorochrome signals for at least 20 individual cells ±SE. […]

[8] = system: LSD1 phosphorylated at serine 111 (LSD1s111p); assay: LSD1s111p in MDA-MB-231 cells treated with PKC inhibitors, confocal microscopy; assay type: cell-based, human; conditions: FIG. 26
Method: as §3

[9] = molecular target: T3, LSD1 phosphorylated at serine 111 (LSD1s111p) (Homo sapiens, UniProt O60341); assay: Confocal microscopy of LSD1s111p in MCF7 cells treated with peptide inhibitors; assay type: cell-based; conditions: stimulated and non-stimulated MCF7 cells, relative to control, FIG. 4
T3 construct: endogenous in cells; host or cells: MCF7 (non-stimulated or PMA-stimulated) and MDA-MB-231 breast cancer cells
Method: as §1
(§4) MDA-MB-231 or MCF7 cells were treated with one of L1, L2 or L3 and a control. Cells were then fixed with 3.7% formaldehyde and permeabilized with 2% Triton-X-100, then probed with a primary mouse antibody against LSD1 or a primary rabbit antibody against PD-L1, EGFR or MET, followed by visualization with a secondary goat antibody to mouse or rabbit immunoglobulins conjugated to Alexa-Fluor 488. Confocal laser scanning microscopy was used to measure the Fn/c (ratio of nuclear to cytoplasmic fluorescent intensity) ratio of LSD1 with Fiji-imageJ or the total nuclear fluorescence of PD-L1, EGFR or MET. Values are plotted with significant differences indicated using the Mann-Whitney T-test, with at least 20 cells counted per sample. Representative images for each treatment are shown.

[10] = molecular target: T3, LSD1 phosphorylated at serine 111 (LSD1s111p); assay: Confocal microscopy of LSD1s111p in MDA-MB-231 cells treated with peptide inhibitors; assay type: cell-based; conditions: relative to control, FIG. 4
Method: as §1, §4

PD-L1 [11] = assay: Confocal microscopy of PD-L1 in MCF7 cells treated with peptide inhibitors; assay type: cell-based, human
Method: as §1, §4

PD-L1 [12] = assay: Confocal microscopy of PD-L1 in MDA-MB-231 cells treated with peptide inhibitors; assay type: cell-based, human
Method: as §1, §4

LSD1 [13] = molecular target: T2, LSD1; assay: LSD1 nuclear translocation in MDA-MB-231 cells, confocal microscopy; assay type: cell-based; conditions: FIG. 19 and FIG. 31
Method: as §4
Confocal laser scanning microscopy was performed on MDA-MB-231 cells treated with a LSD1 peptide inhibitor, L1, L2 or L3, or vehicle alone. Cells were fixed with 3.7% formaldehyde and permeabilized with 2% Triton-X-100, and then probed with a primary mouse antibody to LSD1, followed by the corresponding secondary antibody conjugated to Alexa-Fluor 488. Confocal laser scanning microscopy was used to determine the Fn/c ratio of LSD1 with image-J. Values are plotted with significant differences indicated. Data shown represent the mean±SE for at least 20 individual cells.

EGFR = assay: Confocal microscopy of EGFR in MDA-MB-231 cells treated with peptide inhibitors; assay type: cell-based, human; conditions: in comparison to control, FIG. 23
Method: as §4

MET = assay: Confocal microscopy of MET in MDA-MB-231 cells treated with peptide inhibitors; assay type: cell-based, human; conditions: in comparison to control, FIG. 24
Method: as §4

MCF7 cells = conditions: PMA stimulated MCF7 cells, 50 μM and 100 μM tested, FIG. 20
Method: (§6) 5×10^4 MCF7 or MDA-MB-231 cells were seeded with 1 mL of complete DMEM in 12 well plates overnight. […] Samples were harvested by trypsinisation followed by washing with DPBS containing 2% HI-FBS. FACS staining were performed using anti-human CD44-APC, anti-human CD24-PE, Hoechst, and anti-human EpCAM antibody cocktails. Data was collected from a BD FACSLSR-II flow cytometer. Treestar FlowJo was used for data analysis.

MDA-MB-231 cells = conditions: 100 μM, FIG. 21
Method: as §6

## C#CCN(C)Cc1ccccc1 [Pargyline, pargyline]
LSD1s111p
  expression of LSD1s111p (TCFI): significant knockdown
LSD1 [1]
  nuclear fluorescence signal of LSD1: significantly abrogated
SNAIL [2]
  nuclear fluorescence signal of SNAIL: significantly abrogated
LSD1 [3]
  nuclear fluorescence signal of LSD1: significantly abrogated
SNAIL [4]
  nuclear fluorescence signal of SNAIL: significantly abrogated
PD-L2
  expression of PD-L2 (TCFI): significant knockdown
cytokeratin
  expression of cytokeratin (TCFI): significant knockdown
PD-L1 [5]
  PD-L1 expression (total cell fluorescence): significant knockdown
SNAIL [6]
  SNAIL expression (total cell fluorescence): significant knockdown

## bisindolylmaleimide [BIM]
[7]
  LSD1 phosphorylation (LSD1s111p, TNFI): significantly abrogated
[8]
  LSD1 phosphorylation (LSD1s111p, TNFI): significantly abrogated

## CC(C)[C@@](C)(O)[C@@H]1CN(c2nc(-c3n[nH]c4ncccc34)c(F)cc2Cl)CCN1 [Peptide C27, (R)-2-((S)-4-(3-chloro-5-fluoro-6-(1H-pyrazolo[3,4-b]pyridine-3-yl)pyridine-2-yl)piperazin-2-yl)-3-methylbutan-2-ol]
[7]
  LSD1 phosphorylation (LSD1s111p, TNFI): significantly abrogated
[8]
  LSD1 phosphorylation (LSD1s111p, TNFI): significantly abrogated

## CCCCCCCCCCCCCC(=O)N[C@@H](CCCNC(=N)N)C(=O)N[C@@H](CCCNC(=N)N)C(=O)N[C@H](C(=O)N[C@@H](C)C(=O)N[C@@H](CCCNC(=N)N)C(=O)N[C@@H](CCCNC(=N)N)C(=O)N[C@@H](CCCCN)C(=O)N[C@@H](CCCNC(=N)N)C(=O)N[C@@H](C)C(=O)N[C@@H](CCCCN)C(=O)N[C@H](C(=O)O)C(C)C)[C@@H](C)O [Peptide L2, Myristoyl-RRTARRKRAKV-OH] (Myristoyl-RRTARRKRAKV-OH)
[9]
  nuclear expression of LSD1s111p (TNFI): significantly abrogated
[10]
  nuclear expression of LSD1s111p (TNFI): significantly abrogated
PD-L1 [11]; epithelial non-stimulated MCF7 cells, compared with stimulated cells
  abrogation of nuclear PD-L1 expression: lessened
PD-L1 [11]; peptide treated MCF7 cells
  Fn/c ratio (nuclear bias) of PD-L1: strongly nuclear
PD-L1 [11]; stimulated MCF7 cells, FIG. 5
  cytoplasmic/surface expression of PD-L1 (TCFI): significantly inhibited
PD-L1 [11]; stimulated, mesenchymal MCF7 cells, FIG. 5
  expression of nuclear PD-L1 (TNFI): significantly abrogated
PD-L1 [12]; MDA-MB-231 cells, FIG. 6
  cytoplasmic/surface expression of PD-L1 (TCFI): significantly inhibited
  expression of nuclear PD-L1 (TNFI): significantly abrogated
PD-L1 [12]; MDA-MB-231 cells, in comparison to the control, FIG. 22 (50 μM and 100 μM)
  PD-L1 nuclear expression: abrogated
PD-L1 [12]; peptide treated MDA-MB-231 cells
  Fn/c ratio (nuclear bias) of PD-L1: strongly nuclear
LSD1 [13]
  nuclear translocation of LSD1 (Fn/c): inhibited; also recorded: clearly abrogated
EGFR
  EGFR nuclear expression (TNFI): reduction
MET
  MET nuclear expression (TNFI): significant abrogation
MCF7 cells
  cancer stem cell formation: inhibited
MDA-MB-231 cells
  cancer stem cell formation: significant reduction

## Cc1cccc(CNC(=O)C(CCCCN[C@@H]2C[C@H]2c2ccccc2)NC(=O)c2ccc(-c3ccccc3)cc2)c1.Cl (relative stereo) [NCD36, 2-[N-(4-phenylbenzenecarbonyl)]amino-6-(trans-2-phenylcyclopropan-1-amino)-N-(3-methylbenzyl)hexanamide hydrochloride]
LSD1 [1]
  nuclear fluorescence signal of LSD1: significantly abrogated
SNAIL [2]
  nuclear fluorescence signal of SNAIL: significantly abrogated
LSD1 [3]
  nuclear fluorescence signal of LSD1: significantly abrogated
SNAIL [4]
  nuclear fluorescence signal of SNAIL: significantly abrogated
